Measurements as given in ChEMBL document CHEMBL5625177, “Recent advance of small-molecule drugs for clinical treatment of osteoporosis: A review” (Eur J Med Chem, 2023).

Tested on: Rattus norvegicus
Assay: Anti-hypertensive activity in fructose fed-induced hypertensive rat assessed as increase in ionized calcium level in serum at 20 mg/kg administered once daily for 28 days
Type: functional
Settings: time 28 day

`C=C1/C(=C\C=C2/CCC[C@]3(C)[C@@H]([C@H](C)CCCC(C)(C)O)CC[C@@H]23)C[C@@H](O)C[C@@H]1O` [CALCITRIOL] showed an Activity of 1.44 mM.
